Results reported in the supplement of paper PMC11061612.

Columns and labels:
Assay in all cases: combination Emax (second highest fraction inhibited in the dose matrix, 72 h); higher = more inhibition; extreme values may be limits of the assay
[1] = tested on: 639-V (Bladder Carcinoma)
Procedure, shortened: (§1)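 After 24 hours at 37°C and 5% CO2 in 1536-well plates, cells in DMEM/F12 or RPMI plus 10% FBS received two-drug dose matrices for 72 hours. Viability came from CellTiter-Glo 2.0 luminescence and was scaled as inhibition, anchored at 0 by vehicle wells and at 1 by blank wells. Combination Emax is taken as the second-highest inhibition in the matrix, and Bliss excess as the observed combination effect less EA + EB − EA·EB, with EA and EB the single-agent effects.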

[2] = tested on: 8305C (Thyroid Gland Carcinoma)
Procedure, shortened: as §1

[3] = tested on: CAL-51 (Breast Carcinoma)
Procedure, shortened: as §1

[4] = tested on: CAL-54 (Kidney Carcinoma)
Procedure, shortened: as §1

COLO-829 (Melanoma) = tested on: COLO-829 (Melanoma)
Procedure, shortened: as §1

[5] = tested on: EN (Endometrial Carcinoma)
Procedure, shortened: as §1

[6] = tested on: HARA (Squamous Cell Lung Carcinoma)
Procedure, shortened: as §1

[7] = tested on: HCC-15 (Squamous Cell Lung Carcinoma)
Procedure, shortened: as §1

NB14 (Neuroblastoma) = tested on: NB14 (Neuroblastoma)
Procedure, shortened: as §1

NCI-H2461 (Mesothelioma) = tested on: NCI-H2461 (Mesothelioma)
Procedure, shortened: as §1

NCI-H2795 (Mesothelioma) = tested on: NCI-H2795 (Mesothelioma)
Procedure, shortened: as §1

[8] = tested on: NCI-H69 (Small Cell Lung Carcinoma)
Procedure, shortened: as §1

[9] = tested on: NCI-H747 (Colorectal Carcinoma)
Procedure, shortened: as §1

[10] = tested on: PCI-30 (Head and Neck Carcinoma)
Procedure, shortened: as §1

[11] = tested on: RKO (Colorectal Carcinoma)
Procedure, shortened: as §1

[12] = tested on: RPMI-6666 (Non-Cancerous)
Procedure, shortened: as §1

SH-4 (Melanoma) = tested on: SH-4 (Melanoma)
Procedure, shortened: as §1

[13] = tested on: SU-DHL-6 (B-Cell Non-Hodgkin's Lymphoma)
Procedure, shortened: as §1

[14] = tested on: SW1271 (Small Cell Lung Carcinoma)
Procedure, shortened: as §1

[15] = tested on: UMC-11 (Other Solid Carcinomas)
Procedure, shortened: as §1

Compound | combination Emax [1] | combination Emax [2] | combination Emax [3] | combination Emax [4] | combination Emax (COLO-829 (Melanoma)) | combination Emax [5] | combination Emax [6] | combination Emax [7] | combination Emax (NB14 (Neuroblastoma)) | combination Emax (NCI-H2461 (Mesothelioma)) | combination Emax (NCI-H2795 (Mesothelioma)) | combination Emax [8] | combination Emax [9] | combination Emax [10] | combination Emax [11] | combination Emax [12] | combination Emax (SH-4 (Melanoma)) | combination Emax [13] | combination Emax [14] | combination Emax [15]
COc1cccc(OCCCN)c1-c1cc(Nc2cnc(C#N)cn2)n[nH]1 [Prexasertib] + CCc1c2c(nc3ccc(O)cc13)-c1cc3c(c(=O)n1C2)COC(=O)[C@]3(O)CC [SN-38] (first compound max 1 µM, 7x7, partner max 0.3 µM) | 1 | 0.823 | 0.901 | 0.855 | 0.662 | 0.75 | 0.966 | 0.857 | 1 | 0.705 | 0.813 | 0.896 | 0.724 | 0.966 | 0.909 | 0.976 | 0.684 | 0.991 | 0.769 | 0.959
CC1(C)CCC(CN2CCN(c3ccc(C(=O)NS(=O)(=O)c4ccc(NCC5CCOCC5)c([N+](=O)[O-])c4)c(Oc4cnc5[nH]ccc5c4)c3)CC2)=C(c2ccc(Cl)cc2)C1 [Venetoclax] + C[C@@H]1COCCN1C2=NC(=NC(=C2)C3(CC3)[S@](=N)(=O)C)C4=C5C=CNC5=NC=C4 [AZD6738] (first compound max 1 µM, 7x7, partner max 10 µM) | 0.479 | 0.681 | 0.909 | 0.768 | 0.349 | 0.64 | 0.804 | 0.191 | 1 | 0.725 | 0.622 | 0.618 | 0.387 | 0.69 | 0.869 | 0.971 | 0.304 | 0.92 | 0.612 | 0.619
Cc1c2c(nn1C)CSCc1cc(n(C)n1)CSc1cc(c3ccccc3c1)OCCCc1c(C(=O)O)n(C)c3c-2c(Cl)ccc13 [AZD5991] + CN(C)CCCOc1ccc(-c2ccc3ncc4c(c3c2)n(C2CCOCC2)c(=O)n4C)cn1 [AZD0156] (first compound max 1 µM, 7x7, partner max 1 µM) | 0.239 | 0.325 | 0.476 | 0.263 | 0.118 | 0.572 | 0.312 | 0.303 | 0.771 | 0.307 | 0.812 | 0.314 | 0.414 | 0.232 | 0.225 | 0.502 | 0.316 | 1 | 0.27 | 0.486
C[C@@H](c1ccc2nccn2c1)n1nnc2ncc(-c3cnn(C)c3)nc21 [Savolitinib] + Cc1c2c(nn1C)CSCc1cc(n(C)n1)CSc1cc(c3ccccc3c1)OCCCc1c(C(=O)O)n(C)c3c-2c(Cl)ccc13 [AZD5991] (first compound max 1 µM, 7x7, partner max 1 µM) | 0.21 | 0.196 | 0.152 | 0.188 | 0.242 | 0.43 | 0.236 | 0.124 | 0.293 | 0.345 | 0.574 | 0.159 | 0.337 | 0.146 | 0.211 | 0.523 | 0.192 | 1 | 0.166 | 0.275
CN(CCO)CC[C@H](CSc1ccccc1)Nc1ccc(S(=O)(=O)NC(=O)c2ccc(N3CCC([C@@H](O)c4ccccc4-c4ccc(Cl)cc4)CC3)cc2)cc1S(=O)(=O)C(F)(F)F [AZD4320] + Cc1cc2ncnn2cc1Nc1ncc2c(n1)n(C1CCOCC1)c(=O)n2C [AZD7648] (first compound max 1 µM, 7x7, partner max 10 µM) | 0.208 | 0.699 | 0.193 | 0.372 | 0.0921 | 0.304 | 0.244 | 0.936 | 0.966 | 0.293 | 0.43 | 0.882 | 0.387 | 0.178 | 0.21 | 0.898 | 0.16 | 0.97 | 0.216 | 0.712
NC1(C(=O)N[C@@H](CCO)c2ccc(Cl)cc2)CCN(c2ncnc3[nH]ccc23)CC1 [Capivasertib] + COc1nnc2ccc(N3CCC(c4ccc(OCCN5CCN(C)C(=O)[C@H]5C)cc4)CC3)nn12 [AZD5153] (first compound max 10 µM, 7x7, partner max 1 µM) | 0.622 | 0.495 | 0.651 | 0.775 | 0.272 | 0.525 | 0.77 | 0.626 | 0.884 | 0.526 | 0.398 | 0.829 | 0.855 | 0.366 | 0.842 | 0.815 | 0.775 | 1 | 0.459 | 0.768
Cc1c2c(nn1C)CSCc1cc(n(C)n1)CSc1cc(c3ccccc3c1)OCCCc1c(C(=O)O)n(C)c3c-2c(Cl)ccc13 [AZD5991] + Cn1cnc2c(F)c(Nc3ccc(Br)cc3Cl)c(C(=O)NOCCO)cc21 [Selumetinib] (first compound max 1 µM, 7x7, partner max 3 µM) | 0.283 | 0.512 | 0.406 | 0.28 | 0.907 | 0.535 | 0.223 | 0.563 | 0.76 | 0.359 | 0.971 | 0.218 | 0.728 | 0.198 | 0.406 | 0.695 | 0.96 | 1 | 0.448 | 0.348
CN(C)CCCOc1ccc(-c2ccc3ncc4c(c3c2)n(C2CCOCC2)c(=O)n4C)cn1 [AZD0156] + CCN(CCO)CCCOc1ccc2c(Nc3cc(CC(=O)Nc4cccc(F)c4)[nH]n3)ncnc2c1 [AZD2811] (first compound max 1 µM, 7x7, partner max 1 µM) | 0.179 | 0.29 | 0.196 | 0.134 | 0.069 | 0.494 | 0.289 | 0.665 | 0.857 | 0.195 | 0.291 | 0.673 | 0.167 | 0.192 | 0.213 | 0.551 | 0.247 | 0.478 | 0.201 | 0.758
CN(C)CCCOc1ccc(-c2ccc3ncc4c(c3c2)n(C2CCOCC2)c(=O)n4C)cn1 [AZD0156] + C=CCn1c(=O)c2cnc(Nc3ccc(N4CCN(C)CC4)cc3)nc2n1-c1cccc(C(C)(C)O)n1 [AZD1775] (first compound max 1 µM, partner max 1 µM) | 0.204 | 0.924 | 0.728 | 0.642 | 0.099 | 0.512 | 0.809 | 0.299 | 1 | 0.674 | 0.512 | 0.312 | 0.414 | 0.265 | 0.719 | 0.923 | 0.564 | 0.699 | 0.476 | 0.377
COc1cc2ncnc(Nc3ccc(F)c(Cl)c3)c2cc1OCCCN1CCOCC1 [Gefitinib] + CC(C)n1c(=O)n(C)c2cnc3cc(F)c(-c4ccc(OCCCN5CCCCC5)nc4)cc3c21 [AZD1390] (first compound max 10 µM, 7x7, partner max 0.3 µM) | 0.158 | 0.298 | 0.068 | 0.486 | 0.143 | 0.248 | 0.298 | 0.0725 | 0.128 | 0.256 | 0.324 | 0.286 | 0.369 | 0.131 | 0.0688 | 0.615 | 0.149 | 0.433 | 0.188 | 0.0797
Cc1cc2ncnn2cc1Nc1ncc2c(n1)n(C1CCOCC1)c(=O)n2C [AZD7648] + C=CCn1c(=O)c2cnc(Nc3ccc(N4CCN(C)CC4)cc3)nc2n1-c1cccc(C(C)(C)O)n1 [AZD1775] (first compound max 10 µM, partner max 1 µM) | 0.425 | 0.7 | 0.864 | 0.755 | 0.214 | 0.662 | 0.797 | 0.345 | 0.998 | 0.659 | 0.602 | 0.389 | 0.55 | 0.375 | 0.678 | 0.892 | 0.447 | 0.753 | 0.633 | 0.424
CC1(C)CCC(CN2CCN(c3ccc(C(=O)NS(=O)(=O)c4ccc(NCC5CCOCC5)c([N+](=O)[O-])c4)c(Oc4cnc5[nH]ccc5c4)c3)CC2)=C(c2ccc(Cl)cc2)C1 [Venetoclax] + C1CN(CCC1(C(=O)N[C@@H](CCO)C2=CC=C(C=C2)Cl)N)C3=NC=NC4=C3C=CN4 [Capivasertib] (first compound max 1 µM, 7x7, partner max 3 µM) | 0.283 | 0.387 | 0.487 | 0.325 | 0.16 | 0.554 | 0.645 | 0.232 | 0.95 | 0.528 | 0.375 | 0.802 | 0.441 | 0.252 | 0.36 | 0.963 | 0.208 | 0.995 | 0.262 | 0.196
